# Source: PMC9220805, “The 26S Proteasome Switches between ATP-Dependent and -Independent Mechanisms in Response to Substrate Ubiquitination” (Biomolecules, 2022)
# System: T1, 26S proteasome (WT proteasome)
# T1 construct: gene RPT1; native 26S holoenzyme (19S + 20S) purified by 3xFLAG-tagged Rpn11; with Ubiquitin carboxyl-terminal hydrolase RPN11
# Assay: SDS-PAGE fluorescence degradation assay of Cy5-labelled ubiquitinated substrate
# Type: biochemical, Saccharomyces cerevisiae
# Settings: 1 mM ATPγS in place of ATP regeneration system; 100 nM proteasome, 20 nM substrate, 5 mM MgCl2, pH 7.5, 30 °C; nonhydrolyzable ATP analog
compound,measurement,value
Nc1ncnc2c1ncn2[C@@H]1O[C@H](COP(=O)(O)OP(=O)(O)OP(O)(O)=S)[C@@H](O)[C@H]1O [ATPγS],SDS-PAGE fluorescence degradation assay of Cy5-labelled ubiquitinated substrate,ATPγS considerably slowed degradation of the ubiquitinated-Rpn4-containing substrate
